This note sets out measurements from paper PMC10167756 (Journal of medicinal chemistry, 2023).

Where a name gives a salt, the structure may show the parent alone.

This experiment concerns the target T1, Spns2 (Spinster homolog 2) (Mus musculus, UniProt Q91VM4).
T1 sequence (Q91VM4 1-549): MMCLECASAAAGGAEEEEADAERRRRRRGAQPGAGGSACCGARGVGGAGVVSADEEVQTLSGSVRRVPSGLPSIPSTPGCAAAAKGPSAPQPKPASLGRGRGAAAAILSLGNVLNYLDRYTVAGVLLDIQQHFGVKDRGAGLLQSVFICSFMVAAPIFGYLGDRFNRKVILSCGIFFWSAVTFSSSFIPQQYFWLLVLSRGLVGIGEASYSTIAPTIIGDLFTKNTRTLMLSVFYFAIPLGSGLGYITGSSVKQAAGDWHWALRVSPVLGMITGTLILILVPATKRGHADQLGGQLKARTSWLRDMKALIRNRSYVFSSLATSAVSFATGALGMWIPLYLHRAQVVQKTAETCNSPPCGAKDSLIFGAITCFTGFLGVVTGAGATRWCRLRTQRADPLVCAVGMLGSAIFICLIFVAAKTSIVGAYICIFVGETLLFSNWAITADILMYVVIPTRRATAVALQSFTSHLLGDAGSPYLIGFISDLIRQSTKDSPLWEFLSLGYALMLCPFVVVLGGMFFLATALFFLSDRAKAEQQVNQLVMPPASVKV
The experiment is described as follows: S1P release assay in mouse Spns2-transfected HeLa cells, % inhibition at […]. The format is cell-based.

The term inhibition denotes the percentage by which the read-out fell short of the control. Lower therefore signals little suppression. With `CCCCCCCCCc1ccc2oc(NC[C@H]3CCNC3)nc2c1` [35p, (S)-5-nonyl-N-(pyrrolidin-3-ylmethyl)benzo[d]oxazol-2-amine hydrochloride], testing at 0.3 µM gave an inhibition of 50 ± 4%.
